Legend:
[1] = tested on: CD4+ T-cells; experiment: I-MUNE assay: proliferation of CD4+ T-cells with differentiated dendritic cells in response to beta-lactamase 15-mer peptides; format: cell-based, human
[2] = tested on: HLA-DRB1 and DQB1 antigens; experiment: HLA association with responses to epitope peptides; design: species or system human
Description: HLA-DR and DQ types were analyzed for associations with responses to defined epitope peptides. A Chi-squared analysis, with one degree of freedom was used to determine significance. Where an allele was present in both the responder and non-responder pools, a relative risk was calculated.
The HLA-DR and DQ expression of 65 of the donors tested in both rounds of assay testing described above were assessed using a commercially available PCR-based HLA typing kit (Bio-Synthesis). […] Wherever the HLA antigen was present in both reactive and non-reactive donors, a relative risk (i.e., the increased or decreased likelihood of presenting a reaction conditioned on the presence of the HLA antigen) was computed. […] In addition, the mean and standard error of quantitative response for each peptide were determined.
The magnitude of the proliferative response to an individual peptide in responders and non-responders expressing epitope-associated HLA alleles were also be analyzed. An “individual responder to the peptide” is defined by a stimulation index of greater than 2.95.

[3] = tested on: CD4+ T-cells; format: cell-based, human; settings: for effect of the change on the percent of responders to the modified epitope sequence: epitope #49 substitution, 69 donors

#36 (MLDLATYTAGGLPLQ; listed as Enterobacter cloacae)
response (percent responders) [1]: 12.11% | quantitative response of DR1+ responders ([2]; donors reactive to the peptide): 7.8 | quantitative response of DR1- responders ([2]; donors reactive to the peptide): 4.42

#107 (TGGFGSYVAFIPEKQ; listed as Enterobacter cloacae)
response (percent responders) [1]: 12.11% | response of DR13 non-responders lower than the other genotypes ([2]; among non-responders): 23% | increase of quantitative response in DR1+ relative to DR1- responders ([2]; donors reactive to the peptide): 27% | quantitative response of DR1+ responders ([2]; donors reactive to the peptide): 5.4 | quantitative response of DR1- responders ([2]; donors reactive to the peptide): 4.2

GTTRLYANASFGLFG (beta-lactamase epitope) [Peptide I155F, peptide #49 with the substitution I155F]
effect of the change on the percent of responders to the modified epitope sequence [3]: little effect

GTTRLYANASLGLFG (beta-lactamase epitope) [Peptide I155L, peptide #49 with the substitution I155L]
effect of the change on the percent of responders to the modified epitope sequence [3]: little effect

GTTRLYANASVGLFG (beta-lactamase epitope) [Peptide I155V, peptide #49 with the substitution I155V]
effect of the change on the percent of responders to the modified epitope sequence [3]: increased the percent of responders

GTTRSYANASIGLFG (variant of SEQ ID NO82) [Peptide L149S, peptide #49 with the substitution L149S]
effect on the epitope response rate [3]: had an effect

tetanus toxoid [reference compound]
positive control proliferative response ([1]; approximately 5 Lf/mL): robust positive control responses

— US20050164308A1, “Beta-lactamase CD4+ T-cell epitopes” (priority 2003, published 2005)
